# Test results reported in patent publication US12292445B2, “Methods of selecting subjects for treatment with metabolomic modulators” (priority 2018, dated 2025).
# Tests used:
# SPF Swiss Webster mice = assay: 6-Hz psychomotor seizure assay; assay type: in vivo; conditions: SPF mice fed CD, oral gavage 13.3 mg/kg every 12 hours for 3 days, vs vehicle
# Description: The 6-Hz test was conducted as previously described. […] All subsequent experimental cohorts contained male mice. One drop (˜50 ul) of 0.5% tetracaine hydrochloride ophthalmic solution was applied to the corneas of each mouse 10-15 min before stimulation. Corneal electrodes were coated with a thin layer of electrode gel (Parker Signagel). A constant-current current device (ECT Unit 57800, Ugo Basile) was used to deliver current at 3 sec duration, 0.2 ms pulse-width and 6 pulses/s frequency. CC50 (the intensity of current required to elicit seizures in 50% of the experimental group) was measured as a metric for seizure susceptibility. […] Locomotor behavior was recorded using Ethovision XT software (Noldus) and quantitative measures for falling, tail dorsiflexion (Straub tail), forelimb clonus, eye/vibrissae twitching and behavioral remission were scored manually. […] Latency to exploration (time elapsed from when an experimental mouse is released into the observation cage (after corneal stimulation) to its first lateral movement) was scored using Ethovision and manually with an electronic timer. […] Seizure threshold (CC50) was determined as previously described, using the average log interval of current steps per experimental group, where sample n is defined as the subset of animals displaying the less frequent seizure behavior. […]
# Kcnal−/− mice = assay: Kcnal seizure recordings (EEG); assay type: in vivo, mouse; conditions: CD-fed SPF Kcnal−/− mice, oral gavage 13.3 mg/kg every 12 hours
# Description: EEGs were recorded from male and female Kcnal^−/− mice at 6-7 weeks of age. Kcnal^+/+ littermates were used as controls. There were no significant differences observed between males and females in seizure frequency and duration. Data presented include both sexes. Mice were anesthetized with isoflurane (5% induction, 2% maintenance) and eye ointment applied to each eye. Fur was removed along the head, and the area was cleaned with three alternative scrubs of chlorohexidine and 70% isopropanol. In a biosafety cabinet, mice were positioned in a stereotaxic apparatus (Harvard Biosciences) and 1 mg/kg lidocaine +1 mg/kg bupivacaine was applied locally along the incision site. […]
# During EEG recordings, animals were freely moving and maintained on experimental diet. […] Simultaneous video recordings of behavioral seizures were correlated with EEG recordings and scored based on an adapted Racine scale and defined by 5 stages: 1) myoclonic jerk, 2) head stereotypy and facial clonus, 3) bilateral and alternating forelimb/hindlimb clonus, 4) rearing and falling, and 5) generalized tonic-clonic episodes. Data were analyzed by a blinded researcher using Neuroscore CNS Software (DSI). EEG signals were filtered using a 10 Hz high pass filter, and seizure events were detected by blinded manual scoring. […]
# [1] = test system: gamma-glutamyltranspeptidase (GGT); assay: GGT activity assay, fecal samples exposed to GGsTop; assay type: biochemical, mouse; conditions: all fecal samples (SPF CD, SPF KD, AkkPb KD, AkkPb CD), 500 uM GGsTop
# Description: GGT activity was measured as previously described. For anaerobic cultures, bacteria were seeded at 3×10^5 cfu/ml in CD- and KD-based media. 1 ml bacterial suspension was pelleted and frozen at −80° C. for 1 hr. Separate aliquots of the same suspension were plated in BHI mucin agar media or RCM and incubated at 37° C. in a Coy anaerobic chamber for later data normalization by bacterial cfu. Pellets were then resuspended in 250 ul lysis buffer (50 mM Tris-HCl with 1 ug/ml lysozyme) and incubated on ice for 30 min. For fecal samples, one pellet was weighed and homogenized in 1 ml lysis buffer. Bacterial and fecal suspensions were then sonicated (QSonica 125) and centrifuged at 12000×g for 10 min at 4° C. 20 ul supernatant was mixed with 180 ul substrate buffer (2.9 mM L-gamma-glutamyl-3-carboxy-4-nitroanilide (Gold Bio), 100 mM of glycylglycine (Sigma Aldrich), 100 mM Tris-HCl), and 500 uM GGsTop (if noted). Absorbance at 405 nm denoting production of 3-carboxy-4-nitroaniline was measured every minute for 1 hr at 37° C. using an automated multimode plate reader (Biotek Synergy H1).
# [2] = test system: gamma-glutamyltranspeptidase (GGT); assay: GGT activity assay in cultured P. merdae; assay type: biochemical, Parabacteroides merdae; conditions: conventionally-cultured P. merdae, 500 uM GGsTop vs vehicle
# Description: (§1) Cross-feeding was measured as previously described. A. muciniphila was embedded at 2×10^6 cfu/ml in 5 ml pre-reduced CD or KD-based liquid media supplemented with 1% agar at the bottom of an anaerobic tube, and P. merdae was overlaid above it at 6×10^6 cfu/ml in 5 ml pre-reduced M9 minimal media. Diet-based media were generated by aseptically suspending mouse KD vs. CD diets, described above, to 2 kcal/ml in M9 media. Pilot experiments confirmed no ectopic translocation of embedded A. muciniphila from the agar compartment into the above M9 liquid compartment. For each time point, aliquots were taken from the top and bottom compartments, plated in a dilution series in rich media (RCM for P. merdae and BHI +0.05% mucins for A. muciniphila), and colonies were counted. For GGsTop pre-treatment experiments, P. merdae was incubated with 500 uM GGsTop vs vehicle in RCM media at 37° C. for 2 hours and then washed with sterile media.
# GGT activity was measured as previously described. For anaerobic cultures, bacteria were seeded at 3×10^5 cfu/ml in CD- and KD-based media. 1 ml bacterial suspension was pelleted and frozen at −80° C. for 1 hr. […] Absorbance at 405 nm denoting production of 3-carboxy-4-nitroaniline was measured every minute for 1 hr at 37° C. using an automated multimode plate reader (Biotek Synergy H1).
# A. muciniphila = assay: Cross-feeding in vitro assay, A. muciniphila growth; assay type: cell-based, Akkermansia muciniphila; conditions: A. muciniphila in CD agar exposed to P. merdae pre-treated with 500 uM GGsTop vs vehicle, 24 hours
# Description: as §1
# P. merdae = assay: Cross-feeding in vitro assay, P. merdae viability after GGsTop pre-treatment; assay type: cell-based, Parabacteroides merdae; conditions: 500 uM GGsTop pre-treatment, 2 hours, 37° C., pilot experiments
# Description: as §1
compound,measurement,setting,value
"COP(=O)(CCC(N)C(=O)O)Oc1cccc(CC(=O)O)c1 (stereo not drawn) [GGsTop, 3-[[(3-amino-3-carboxypropyl)methoxyphosphinyl]oxy]benzeneacetic acid]",6-Hz seizure threshold (CC50),SPF Swiss Webster mice,increases in seizure thresholds toward levels seen in SPF KD mice
same,seizures per day (EEG),Kcnal−/− mice,significant decrease in seizures per day
same,fecal GGT activity signal,[1],eliminated the detected signals
same,GGT activity in P. merdae,[2],ablated
same,A. muciniphila growth,A. muciniphila,increased growth
same,P. merdae viability,P. merdae,no significant effect
